PubChem BioAssay (NCI)
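Values below derive from 48-hour exposures of cells grown in 96-well plates, with endpoints linearly interpolated between the two concentrations bracketing the appropriate inhibition level. TGI denotes the concentration required for complete inhibition of growth.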

Key:
Test in all cases: NCI tumour cell line growth inhibition, 48 h
UACC-62 melanoma = test system: UACC-62 melanoma
SF-295 CNS = test system: SF-295 CNS
MALME-3M melanoma = test system: MALME-3M melanoma
MCF7 breast = test system: MCF7 breast
KM12 colon = test system: KM12 colon
SF-268 CNS = test system: SF-268 CNS
HCT-15 colon = test system: HCT-15 colon
IGROV1 ovarian = test system: IGROV1 ovarian

SMILES	TGI (UACC-62 melanoma)	TGI (SF-295 CNS)	TGI (MALME-3M melanoma)	TGI (MCF7 breast)	TGI (KM12 colon)	TGI (SF-268 CNS)	TGI (HCT-15 colon)	TGI (IGROV1 ovarian)
COC(=O)C1=C(C)NC(C)=C(C(=O)OC)C1c1cccc(N=O)c1	27.6 µM	> 100 µM	28.8 µM	40.1 µM	30.2 µM	30.8 µM	32.5 µM	30.6 µM
O=C(Sc1c(-c2ccccc2)c(=O)n(-c2ccccc2)c(=S)n1-c1ccccc1)c1ccco1	> 100 µM	> 100 µM	> 100 µM	> 100 µM	> 100 µM	> 100 µM	> 100 µM	> 100 µM
CCOc1ccc(NCC2CC/C(=C\C=C\c3ccccc3)C2=O)cc1 (stereo not drawn)	54.2 µM	79.5 µM	57.8 µM	12.3 µM	20.1 µM	24.2 µM	18.9 µM	17.5 µM
CC(C)=CCC12Cc3ccc(O)cc3C(C(C)CN1)C2C (stereo not drawn)	> 100 µM	> 100 µM	> 100 µM	> 100 µM	> 100 µM	> 100 µM	> 100 µM	> 100 µM
COC(=O)C1=C(C(=O)OC)SC(=C2SC3=C(SC(=C4SCCS4)S3)S2)S1	> 100 µM	> 100 µM	> 100 µM	> 100 µM	> 100 µM	> 100 µM		> 100 µM
Cc1cc(OCc2nnc3sc(NC(=O)c4ccccc4)nn23)ccc1Cl	> 100 µM	> 100 µM	42.2 µM	> 100 µM	52.6 µM	> 100 µM	> 100 µM	68 µM
Cc1cccc(NS(=O)(=O)c2ccc(N=Nc3c(O)c(C(=O)O)cc4ccccc34)cc2)n1	> 100 µM	> 100 µM	> 100 µM	> 100 µM	> 100 µM	> 100 µM	> 100 µM	> 100 µM
O=C(/C=C\Nc1ccccc1O)C(F)(F)F	> 100 µM	> 100 µM	91.3 µM	> 100 µM	> 100 µM	> 100 µM	> 100 µM	> 100 µM
COc1ccc(OC/C(N=Cc2ccncc2)=N/NC(=O)c2ccncc2)cc1	> 100 µM	> 100 µM	> 100 µM	> 100 µM	> 100 µM	> 100 µM	> 100 µM	> 100 µM
C[C@H](c1ccccc1)N1C(=O)[C@@H](OCc2ccccc2)[C@H]1[C@H](COC(=O)COCc1ccccc1)OCc1ccccc1	> 100 µM	> 100 µM	76.7 µM	> 100 µM	> 100 µM	> 100 µM	> 100 µM	> 100 µM
Clc1cc(C(c2cc(Cl)sc2Cl)c2cc(Cl)sc2Cl)c(Cl)s1	> 100 µM	> 100 µM	> 100 µM	> 100 µM	> 100 µM	> 100 µM	> 100 µM	> 100 µM
Cc1cnc2[nH]c(-c3cccc(F)c3)cc(=O)c2c1	> 100 µM		> 100 µM		1.7 µM	> 100 µM	2.59 µM	> 100 µM
CC1(C)OC[C@@H](C[C@H](O)COCc2ccccc2)O1	> 100 µM	> 100 µM	> 100 µM	> 100 µM	> 100 µM	> 100 µM	> 100 µM	> 100 µM
N#Cc1nc(CCCN2C(=O)c3ccccc3C2=O)oc1N		> 100 µM	> 100 µM	> 100 µM		> 100 µM	> 100 µM	> 100 µM
COc1cccc(N2C(=O)CS(=O)(=O)C2c2cccc(Oc3ccccc3)c2)c1 (stereo not drawn)	24.7 µM	> 100 µM	69.8 µM	10.6 µM	> 100 µM	> 100 µM	> 100 µM	
CCC(=O)Nc1ccc(NS(=O)(=O)c2ccc(Cl)cc2)cc1	> 100 µM	> 100 µM	> 100 µM	> 100 µM	> 100 µM	> 100 µM	> 100 µM	> 100 µM
COc1cc2c3cc1Oc1c(OC)c(OC)cc4c1C(Cc1ccc(O)c(c1)Oc1ccc(cc1)CC3N(C)CC2)CN(C)C4 (stereo not drawn)	32.1 µM	32.7 µM	30.9 µM	34.2 µM	26.3 µM	65.6 µM	33.9 µM	48.9 µM
O=C1/C(=C/c2ccncc2)C(n2cccc2)c2c(Br)sc(Br)c21 (stereo not drawn)	7.5 µM	26.1 µM	10.9 µM	12.7 µM	24.7 µM	11 µM	11.1 µM	4.67 µM
O=C(O)C1=NN(c2ccc(S(=O)(=O)O)cc2)C2(C1)C(Cl)C(=O)N2c1nc2ccccc2s1 (stereo not drawn)	29.5 µM	32.3 µM	38.7 µM	29.9 µM	34.1 µM	39.8 µM	42.4 µM	21.5 µM
CC1CCc2sc3nc4n(c(=O)c3c2C1)CC(C)S4 (stereo not drawn)	38.7 µM	52.6 µM	65.8 µM	52.5 µM	> 100 µM	> 100 µM	> 100 µM	> 100 µM
Nc1nncc2[nH]cnc12	> 100 µM	> 100 µM		> 31.6 µM	> 100 µM	> 100 µM	> 100 µM	> 100 µM
NCCN(CCN(C(=O)Nc1ccccc1)c1ccccc1)C(=O)Nc1ccccc1	35.3 µM	36.4 µM	34.2 µM	46.6 µM		49 µM	76.4 µM	36.7 µM
CNC(=S)NNc1ncnc2c1c(-c1ccc(Cl)cc1)cn2-c1ccc(C)cc1	40.7 µM	20 µM	33 µM		22 µM	26.8 µM	21 µM	25 µM
CC(=O)N(C)c1ccc(Nc2ccnc3ccc4nn(C)nc4c23)cc1	37 µM	59 µM	39.6 µM	46.6 µM	76.2 µM	> 100 µM	64.5 µM	
CCOC(=O)Cn1nnc2cc(Nc3c(C)[n+]([O-])c4cc(F)c(OCC)cc4[n+]3[O-])ccc21		> 100 µM		> 100 µM	> 100 µM	> 100 µM	> 100 µM	> 100 µM
